Laboratory results as given in patent publication US20260184710A1, “CASITAS B-LINEAGE LYMPHOMA PROTOONCOGENE B (CBL-B) DEGRADING COMPOUNDS AND ASSOCIATED METHODS OF USE” (Arvinas Operations, Inc., priority 2022, published 2026).

How the values were obtained:
Cbl-b [1] = target: T1, Cbl-b (Homo sapiens, UniProt Q13191); experiment: Cbl-b Degradation Method A (FACS, anti-Cbl-b antibody staining); format: cell-based; settings: Cbl-b-HiBit KI Jurkat Cells, incubated at least 20 hours; for DC50: half maximal degradation, read-out: Cbl-b Degredation Method A IC50; for Dmax: Jurkat, maximum degradation observed, read-out: Cbl-b Degredation Method A Dmax (%)
T1 construct: Cbl-b-HiBit KI Jurkat Cells were purchased from Promega; host or cells: Cbl-b-HiBiT knock-in Jurkat cells
T1 sequence (Q13191 whole entry): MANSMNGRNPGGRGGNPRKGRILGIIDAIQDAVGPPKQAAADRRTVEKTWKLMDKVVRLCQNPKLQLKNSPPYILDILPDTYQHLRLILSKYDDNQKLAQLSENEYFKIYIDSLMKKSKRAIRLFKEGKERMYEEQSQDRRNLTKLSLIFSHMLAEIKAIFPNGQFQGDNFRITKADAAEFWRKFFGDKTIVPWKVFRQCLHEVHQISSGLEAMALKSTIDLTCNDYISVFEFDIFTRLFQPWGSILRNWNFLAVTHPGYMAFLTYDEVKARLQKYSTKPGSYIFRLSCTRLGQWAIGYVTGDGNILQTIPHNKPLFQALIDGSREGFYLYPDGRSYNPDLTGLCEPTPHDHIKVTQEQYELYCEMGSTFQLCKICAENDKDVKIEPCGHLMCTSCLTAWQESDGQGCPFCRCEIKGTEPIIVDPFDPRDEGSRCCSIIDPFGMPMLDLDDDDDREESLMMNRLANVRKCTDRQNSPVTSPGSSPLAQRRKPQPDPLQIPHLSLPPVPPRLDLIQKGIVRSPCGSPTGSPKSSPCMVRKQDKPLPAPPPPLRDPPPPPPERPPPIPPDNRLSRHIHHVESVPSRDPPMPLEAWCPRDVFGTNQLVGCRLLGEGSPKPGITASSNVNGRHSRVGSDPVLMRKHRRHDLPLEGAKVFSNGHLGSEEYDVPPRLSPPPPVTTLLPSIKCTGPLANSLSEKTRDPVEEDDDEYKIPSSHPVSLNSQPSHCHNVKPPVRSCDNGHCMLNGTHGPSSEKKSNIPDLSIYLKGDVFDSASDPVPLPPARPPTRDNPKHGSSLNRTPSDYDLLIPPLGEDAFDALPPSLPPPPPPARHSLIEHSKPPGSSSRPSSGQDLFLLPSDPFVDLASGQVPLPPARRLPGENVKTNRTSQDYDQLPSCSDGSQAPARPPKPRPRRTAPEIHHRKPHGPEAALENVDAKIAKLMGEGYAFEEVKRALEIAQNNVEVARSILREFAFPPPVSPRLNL
Procedure: Cbl-b Degradation Method A
Cbl-b-HiBit KI Jurkat Cells were purchased from Promega, and cell media consisted of RPMI 1640 with 10% FBS and 1% pen/strep. The cells were counted, measured for viability, and 100 μL of the cell solution was into 96 well flat bottom plates at a ratio of 290,000 cells per 100 μL. Compounds were dissolved in DMSO to make a 10 mM stock solution, which was diluted with cell media. 100 μL of the diluted compound mixture was added to the wells. The plate was incubated for at least 20 hours at 37° C. and 5% CO2. After incubation, the plate was shaken at 700-750 RMP for 15-30 minutes to ensure cells were removed from the wells. The wells were transferred to a 96-well v-bottom plate and spun for 2200 RPM for 3 minutes. The supernatant was removed, cells re-suspended in 100 μL of the fixative, and subsequently incubated at room temperature for 15 minutes. Afterwards, 150 μL of DPBS was added to each well, and the cells were centrifuged at 2500 RPM for 3 minutes. The supernatant was removed and the plate was chilled on ice for 2-3 minutes. While still on the ice, 100 μL of Perm III was added to each well, the wells mixed, and subsequently left on the ice for another 15 minutes. Afterwards, the plate was removed from the ice, 150 μL of DBPS was added to each well, and the cells centrifuged at 2700 RPM for 3 minutes. The supernatant was removed, and an additional 200 μL of was DPBS was added to each well, followed by centrifuging at 2700 RPM for 3 minutes, after which the supernatant was removed. The anti-Cbl-b antibody was diluted 1:200 in 1× Perm Wash buffer and 50 μL of the antibody mixture was added to each well and mixed. After addition, the plate was incubated for 35-45 minutes at room temperature. After incubation, 200 μL of DPBS was added to each wells, and the plate centrifuged at 2700 RPM for 3 minutes, followed by the removal of the supernatant. The washing step was repeated by adding 200 μL of DPBS to each wells followed by centrifuge at 2700 RPM for 3 minutes and removal of the supernatant. The a-Rabbit-AF488 antibody was diluted 1:1000 in Perm Wash buffer, 50 μL of the dilution added to each well, and mixed. After mixing, the plate was incubated for 30 minutes at room temperature in the dark. Subsequently, the supernatant was removed, and 200 μL of DBPS added to the cells, which were then centrifuged at 2900 RPM for 4 minutes. The supernatant was removed, and an additional 95 μL of DBPS was added to the wells and mixed. The cells were then transferred to a round bottom polypropylene plate and analyzed using FACS with the parameters below:
The concentration of an exemplary compound that leads to half maximal degradation (DC50) as well as the maximum degradation observed (Dmax, conventionally expressed as a percentage of control) is shown below in Table 2.

Cbl-b [2] = target: T1, Cbl-b; experiment: Cbl-b Degradation Method B (Nano-Glo HiBiT lytic detection); format: cell-based; settings: Cbl-b-HiBit KI Jurkat Cells, incubated at least 6-24 hours; for DC50: half maximal degradation, read-out: Cbl-b Degredation Method B IC50; for Dmax: read-out: Cbl-b Degredation Method B Dmax (%)
Procedure, shortened: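 Cbl-b-HiBiT knock-in Jurkat cells (20,000/well) were treated after ~24 h plating with an 11-point 1:3 series for 6-24 h at 37° C. Remaining Cbl-b measured by Nano-Glo HiBiT lytic luminescence. DC50 and Dmax expressed as % of control.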

SMILES | DC50 (Cbl-b [1]) [nM] | Dmax (Cbl-b [1]) [%] | DC50 (Cbl-b [2]) [nM] | Dmax (Cbl-b [2]; maximum degradation observed) [%] | Cbl-b Degredation Method B Dmax (%) (Cbl-b [2]; maximum degradation observed)
C[C@@H]1CN(C[C@H]2CC[C@H](OC3CCN(c4ccc5c(c4F)CN(C4CCC(=O)NC4=O)C5=O)CC3)CC2)CCN1Cc1cc2c(c(C(F)(F)F)c1)CN(c1cccc(C3(Cc4nncn4C)COC3)c1)C2=O (stereo partly drawn) [Example 195, 3-[4-fluoro-1-oxo-5-(4-{[(1r,4r)-4-{[(3R)-3-methyl-4-{[2-(3-{3-[(4-methyl-4H-1,2,4-triazol-3-yl)methyl]oxetan-3-yl}phenyl)-3-oxo-7-(trifluoromethyl)-2,3-dihydro-1H-isoindol-5-yl]methyl}piperazin-1-yl]methyl}cyclohexyl]oxy}piperidin-1-yl)-2,3-dihydro-1H-isoindol-2-yl]piperidine-2,6-dione] | < 5 | > 70 | < 5 | 35 to 70 | –
CC(C)n1c(=O)n(C2CCC(=O)NC2=O)c2cccc(N3CCC(O[C@H]4CC[C@H](CN5CCN(Cc6cc7c(c(C(F)(F)F)c6)CN(c6cccc([C@]8(Cc9nncn9C)C[C@@H](C#N)C8)c6)C7=O)C6(COC6)C5)CC4)CC3)c21 (stereo partly drawn) [Example 322, (1r,3r)-3-[(4-methyl-4H-1,2,4-triazol-3-yl)methyl]-3-(3-{1-oxo-6-[(8-{[(1r,4r)-4-({1-[1-(2,6-dioxopiperidin-3-yl)-2-oxo-3-(propan-2-yl)-2,3-dihydro-1H-1,3-benzodiazol-4-yl]piperidin-4-yl}oxy)cyclohexyl]methyl}-2-oxa-5,8-diazaspiro[3.5]nonan-5-yl)methyl]-4-(trifluoromethyl)-2,3-dihydro-1H-isoindol-2-yl}phenyl)cyclobutane-1-carbonitrile] | 50 to 500 | > 70 | 5 to 50 | – | C (C ≤ 35)
CC1c2nc(N3CCC(O[C@H]4CC[C@H](CN5CCN(Cc6cc7c(c(C(F)(F)F)c6)CN(c6cccc(C8(Cc9nncn9C)COC8)c6)C7=O)CC5(C)C)CC4)CC3)ccc2C(=O)N1C1CCC(=O)NC1=O (mixture of isomers) [Example 236, rac-3-[7-methyl-5-oxo-2-(4-{[(1r,4r)-4-[(2,2-dimethyl-4-{[2-(3-{3-[(4-methyl-4H-1,2,4-triazol-3-yl)methyl]oxetan-3-yl}phenyl)-3-oxo-7-(trifluoromethyl)-2,3-dihydro-1H-isoindol-5-yl]methyl}piperazin-1-yl)methyl]cyclohexyl]oxy}piperidin-1-yl)-5H,6H,7H-pyrrolo[3,4-b]pyridin-6-yl]piperidine-2,6-dione] | < 5 | > 70 | < 5 | > 70 | –
Cn1cnnc1CC1(c2cccc(N3Cc4c(cc(CN5CCC(CN6CC(C7CN(c8ccc9c(c8)C(=O)N(C8CCC(=O)NC8=O)C9=O)C7)C6)CC5)cc4C(F)(F)F)C3=O)c2)COC1 (stereo not drawn) [Example 83, 2-(2,6-dioxopiperidin-3-yl)-5-{1′-[(1-{[2-(3-{3-[(4-methyl-4H-1,2,4-triazol-3-yl)methyl]oxetan-3-yl}phenyl)-3-oxo-7-(trifluoromethyl)-2,3-dihydro-1H-isoindol-5-yl]methyl}piperidin-4-yl)methyl]-[3,3′-biazetidin]-1-yl}-2,3-dihydro-1H-isoindole-1,3-dione] | > 500 | – | > 500 | – | –
Cn1cnnc1CC1(c2cccc(N3Cc4c(cc(CN5CCN(C[C@H]6CC[C@H](OC7CCN(c8ccc9c(c8)C(=O)N(C8CCC(=O)NC8=O)C9=O)CC7)CC6)CC5)cc4C(F)(F)F)C3=O)c2)COC1 (stereo partly drawn) [Example 22, 2-(2,6-dioxo-3-piperidyl)-5-[4-[4-[[4-[[2-[3-[3-[(4-methyl-1,2,4-triazol-3-yl)methyl]oxetan-3-yl]phenyl]-3-oxo-7-(trifluoromethyl)isoindolin-5-yl]methyl]piperazin-1-yl]methyl]cyclohexoxy]-1-piperidyl]isoindoline-1,3-dione] | 5 to 50 | 35 to 70 | < 5 | 35 to 70 | –
Cn1cnnc1CC1(c2cccc(N3Cc4c(cc(N5CCC(C6CN(c7ccc8c(c7)C(=O)N(C7CCC(=O)NC7=O)C8=O)C6)CC5)cc4C(F)(F)F)C3=O)c2)COC1 (stereo not drawn) [Example 128, 2-(2,6-dioxopiperidin-3-yl)-5-(3-{1-[2-(3-{3-[(4-methyl-4H-1,2,4-triazol-3-yl)methyl]oxetan-3-yl}phenyl)-3-oxo-7-(trifluoromethyl)-2,3-dihydro-1H-isoindol-5-yl]piperidin-4-yl}azetidin-1-yl)-2,3-dihydro-1H-isoindole-1,3-dione] | > 500 | – | > 500 | – | –
Cn1cnnc1CC1(c2cccc(N3Cc4c(cc(CN5CCN(C6CCN(CC7CCN(c8ccc9c(c8)C(=O)N(C8CCC(=O)NC8=O)C9=O)CC7)CC6)CC5)cc4C(F)(F)F)C3=O)c2)COC1 (stereo not drawn) [Example 104, 2-(2,6-dioxopiperidin-3-yl)-5-(4-{[4-(4-{[2-(3-{3-[(4-methyl-4H-1,2,4-triazol-3-yl)methyl]oxetan-3-yl}phenyl)-3-oxo-7-(trifluoromethyl)-2,3-dihydro-1H-isoindol-5-yl]methyl}piperazin-1-yl)piperidin-1-yl]methyl}piperidin-1-yl)-2,3-dihydro-1H-isoindole-1,3-dione] | 50 to 500 | – | > 500 | – | –
Cn1cnnc1CC1(c2cccc(N3Cc4c(cc(N5CCC6(CCN(c7ccc8c(c7)C(=O)N(C7CCC(=O)NC7=O)C8=O)CC6)CC5)cc4C(F)(F)F)C3=O)c2)COC1 (stereo not drawn) [Example 125, 2-(2,6-dioxopiperidin-3-yl)-5-{9-[2-(3-{3-[(4-methyl-4H-1,2,4-triazol-3-yl)methyl]oxetan-3-yl}phenyl)-3-oxo-7-(trifluoromethyl)-2,3-dihydro-1H-isoindol-5-yl]-3,9-diazaspiro[5.5]undecan-3-yl}-2,3-dihydro-1H-isoindole-1,3-dione] | > 500 | – | > 500 | – | –
C[C@H]1C[C@@H](CN2CCN(c3cccc4c3C(=O)N(C3CCC(=O)NC3=O)C4=O)CC2)CN(Cc2cc3c(c(C(F)(F)F)c2)CN(c2cccc(C4(Cc5nncn5C)COC4)c2)C3=O)C1 (stereo partly drawn) [Example 90, 2-(2,6-dioxopiperidin-3-yl)-4-(4-{[(3R,5S)-5-methyl-1-{[2-(3-{3-[(4-methyl-4H-1,2,4-triazol-3-yl)methyl]oxetan-3-yl}phenyl)-3-oxo-7-(trifluoromethyl)-2,3-dihydro-1H-isoindol-5-yl]methyl}piperidin-3-yl]methyl}piperazin-1-yl)-2,3-dihydro-1H-isoindole-1,3-dione] | > 500 | < 35 | > 500 | – | –
Cn1cnnc1CC1(c2cccc(N3Cc4c(cc(N5CCC[C@H](CN6CCC(CN7CCC(CN8CCN(c9ccc%10c(c9)C(=O)N(C9CCC(=O)NC9=O)C%10=O)CC8)CC7)CC6)C5)cc4C(F)(F)F)C3=O)c2)COC1 (stereo partly drawn) [Example 16, 2-(2,6-dioxo-3-piperidyl)-5-[4-[[1-[[1-[[(3R)-1-[2-[3-[3-[(4-methyl-1,2,4-triazol-3-yl)methyl]oxetan-3-yl]phenyl]-3-oxo-7-(trifluoromethyl)isoindolin-5-yl]-3-piperidyl]methyl]-4-piperidyl]methyl]-4-piperidyl]methyl]piperazin-1-yl]isoindoline-1,3-dione] | 50 to 500 | > 70 | 5 to 50 | < 35 | –
Cc1cc(N2CCC(CN3CCC4(CC3)CN(c3cc5c(c(C(F)(F)F)c3)CN(c3cccc(C6(Cc7nncn7C)CCC6)c3)C5=O)C4)CC2)c(F)c2c1C(=O)N(C1CCC(=O)NC1=O)C2 (stereo not drawn) [Example 190, 3-{4-fluoro-7-methyl-5-[4-({2-[2-(3-{1-[(4-methyl-4H-1,2,4-triazol-3-yl)methyl]cyclobutyl}phenyl)-3-oxo-7-(trifluoromethyl)-2,3-dihydro-1H-isoindol-5-yl]-2,7-diazaspiro[3.5]nonan-7-yl}methyl)piperidin-1-yl]-1-oxo-2,3-dihydro-1H-isoindol-2-yl}piperidine-2,6-dione] | 5 to 50 | > 70 | – | – | –
